From ChEMBL document CHEMBL1201862, “PubChem BioAssay data set” (2004)
Activity calls are given as the source filed them.

What was measured:
ORF 73 = ORF 73 (Human herpesvirus 8, UniProt O40947); test: KSHV LANA DNA-binding disruption – biochemical, fluorescence polarization, cherry-picked samples, dose response (AID 504725); set-up: species or system Human gammaherpesvirus 8;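 further: fluorescence polarization of a labeled DNA duplex reporting LANA DNA binding; potency is for inhibitors that block LANA binding to the DNA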
[1] = target: NACHT, LRR and PYD domains-containing protein 1 (Homo sapiens, UniProt Q9C000); test: NALP1 inhibitors in yeast, dose response, luminescent (AID 488860); type: functional
[2] = target: T1, RNA-binding protein pos-1 (Caenorhabditis elegans, UniProt G5EF15); test: disruptors of C. elegans POS-1 RNA interaction – biochemical, fluorescence polarization, dose response (AID 1964);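 further: purified POS-1 fused to maltose binding protein made in E. coli; potency of compounds blocking POS-1 binding to fluorescent RNA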
T1 sequence (G5EF15 whole entry): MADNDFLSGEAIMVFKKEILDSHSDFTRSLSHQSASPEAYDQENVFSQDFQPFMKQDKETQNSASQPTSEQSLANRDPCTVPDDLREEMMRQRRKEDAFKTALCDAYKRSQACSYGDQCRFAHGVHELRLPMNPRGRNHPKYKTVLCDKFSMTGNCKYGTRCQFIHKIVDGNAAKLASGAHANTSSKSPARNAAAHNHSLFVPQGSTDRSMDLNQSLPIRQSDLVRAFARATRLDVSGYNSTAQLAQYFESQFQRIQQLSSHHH

[3] = target: T2, Sentrin-specific protease 8 (Homo sapiens, UniProt Q96LD8); type: functional;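 further: kinetic enzyme assay of SENP8 cleaving a Nedd8 protein substrate, dose-response confirmation of screening hits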
T2 sequence (Q96LD8 whole entry): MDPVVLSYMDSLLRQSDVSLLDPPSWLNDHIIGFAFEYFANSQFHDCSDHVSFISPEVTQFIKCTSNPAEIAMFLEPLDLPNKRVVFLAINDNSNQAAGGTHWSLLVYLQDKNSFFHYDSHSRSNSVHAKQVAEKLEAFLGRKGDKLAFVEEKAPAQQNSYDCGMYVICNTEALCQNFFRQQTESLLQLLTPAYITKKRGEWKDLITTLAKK

[4] = target: T3, Heat shock factor protein 1 (Mus musculus, UniProt P38532); test: enhancement of HSF1-driven luciferase signal – cell-based, NIH3T3, luminescence, dose retest, confirmation (AID 435004); type: functional;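 further: stress induced by proteasome inhibitor MG132 added 30 min after compound; luciferase reporter driven by HSF1 response element in NIH3T3 cells; actives raise luminescence as potentiators of the MG132 stress response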
T3 sequence (P38532 whole entry): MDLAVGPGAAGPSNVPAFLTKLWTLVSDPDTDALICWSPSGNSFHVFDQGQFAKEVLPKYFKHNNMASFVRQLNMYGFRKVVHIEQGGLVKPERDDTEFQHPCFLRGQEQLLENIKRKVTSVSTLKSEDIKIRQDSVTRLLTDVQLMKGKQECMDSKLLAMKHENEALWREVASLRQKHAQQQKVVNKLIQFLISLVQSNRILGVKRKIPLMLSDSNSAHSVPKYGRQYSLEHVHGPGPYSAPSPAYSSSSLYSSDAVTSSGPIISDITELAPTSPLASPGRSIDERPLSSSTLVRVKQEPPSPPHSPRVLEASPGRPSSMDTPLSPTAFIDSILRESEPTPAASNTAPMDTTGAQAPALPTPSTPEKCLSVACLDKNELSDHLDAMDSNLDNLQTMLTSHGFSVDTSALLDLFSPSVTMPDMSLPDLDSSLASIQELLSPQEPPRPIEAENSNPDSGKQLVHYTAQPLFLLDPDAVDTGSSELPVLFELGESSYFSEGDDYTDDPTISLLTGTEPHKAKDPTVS

Protein RecA = target: T4, Protein RecA (Mycobacterium tuberculosis, UniProt P9WHJ3); test: Fluorescence Cell-Free Homogeneous Dose Retest to Identify Inhibitors of RecA-Intein Splicing Activity. [Related pubchem assays (depositor defined):AID2097, AID2223, AID489010, AID492950]; type: functional
T4 sequence (P9WHJ3 whole entry): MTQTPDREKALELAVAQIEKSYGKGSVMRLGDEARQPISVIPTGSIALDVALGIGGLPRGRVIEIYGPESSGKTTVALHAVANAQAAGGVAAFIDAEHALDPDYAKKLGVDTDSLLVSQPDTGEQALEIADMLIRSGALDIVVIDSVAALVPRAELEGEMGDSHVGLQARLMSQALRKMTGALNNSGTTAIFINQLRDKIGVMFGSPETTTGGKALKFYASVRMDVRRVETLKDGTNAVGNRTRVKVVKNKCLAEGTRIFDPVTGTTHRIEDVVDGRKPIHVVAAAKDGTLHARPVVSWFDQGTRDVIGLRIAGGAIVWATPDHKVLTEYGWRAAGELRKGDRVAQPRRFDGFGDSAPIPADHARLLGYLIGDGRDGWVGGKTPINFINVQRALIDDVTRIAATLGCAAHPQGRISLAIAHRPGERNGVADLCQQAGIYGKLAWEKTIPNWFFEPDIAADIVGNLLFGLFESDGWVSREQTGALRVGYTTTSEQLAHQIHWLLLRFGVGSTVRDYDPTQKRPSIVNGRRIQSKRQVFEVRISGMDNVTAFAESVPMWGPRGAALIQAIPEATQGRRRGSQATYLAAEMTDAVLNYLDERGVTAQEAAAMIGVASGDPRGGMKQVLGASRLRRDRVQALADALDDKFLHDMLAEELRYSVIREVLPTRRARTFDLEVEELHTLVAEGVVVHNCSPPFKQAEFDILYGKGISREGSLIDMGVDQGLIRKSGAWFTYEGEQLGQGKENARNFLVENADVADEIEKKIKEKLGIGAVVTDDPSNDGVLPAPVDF

[5] = target: Homeodomain-interacting protein kinase 2 (Homo sapiens, UniProt Q9H2X6); type: functional;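 further: measured within a kinome-wide kinase profiling panel, HIPK2 being one panel member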
Misshapen-like kinase 1 = Misshapen-like kinase 1 (Homo sapiens, UniProt Q8N4C8); type: functional;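 further: kinome panel screen with MINK as the panel member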
[6] = target: Cyclin-dependent kinase 2 (Homo sapiens, UniProt P24941); type: functional;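 further: CDK2 measured as one member of a broad kinome profiling panel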
[7] = target: Serine/threonine-protein kinase 17A (Homo sapiens, UniProt Q9UEE5); type: functional
[8] = target: Cell division cycle 7-related protein kinase (Homo sapiens, UniProt O00311); type: functional;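 further: value obtained from a kinome-wide kinase panel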
[9] = target: Calcium/calmodulin-dependent protein kinase type II subunit delta (Homo sapiens, UniProt Q13557); type: functional
Large T antigen = Large T antigen (Simian virus 40, UniProt P03070); type: functional, Betapolyomavirus macacae;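 further: Confirmatory-stage PubChem screen for compounds that inhibit SV40 T antigen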
[10] = target: Tyrosine-protein kinase HCK (Homo sapiens, UniProt P08631); test: Navigating the Kinome. Panel member name: HCK; type: functional
[11] = target: Proto-oncogene tyrosine-protein kinase ROS (Homo sapiens, UniProt P08922); type: functional;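 further: ROS1 tested as one member of a kinome-wide kinase panel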
[12] = target: Mitogen-activated protein kinase kinase kinase kinase 4 (Homo sapiens, UniProt O95819); type: functional
[13] = target: MAP/microtubule affinity-regulating kinase 3 (Homo sapiens, UniProt P27448); type: functional;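 further: MARK3 affinity measured as one member of a kinome panel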
[14] = target: Mitogen-activated protein kinase kinase kinase 10 (Homo sapiens, UniProt Q02779); test: Navigating the Kinome. Panel member name: MAP3K10; type: functional
[15] = target: Mast/stem cell growth factor receptor Kit (Homo sapiens, UniProt P10721); type: functional;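 further: KIT entry within a kinase panel assay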
Sequence of Mast/stem cell growth factor receptor Kit (P10721 whole entry): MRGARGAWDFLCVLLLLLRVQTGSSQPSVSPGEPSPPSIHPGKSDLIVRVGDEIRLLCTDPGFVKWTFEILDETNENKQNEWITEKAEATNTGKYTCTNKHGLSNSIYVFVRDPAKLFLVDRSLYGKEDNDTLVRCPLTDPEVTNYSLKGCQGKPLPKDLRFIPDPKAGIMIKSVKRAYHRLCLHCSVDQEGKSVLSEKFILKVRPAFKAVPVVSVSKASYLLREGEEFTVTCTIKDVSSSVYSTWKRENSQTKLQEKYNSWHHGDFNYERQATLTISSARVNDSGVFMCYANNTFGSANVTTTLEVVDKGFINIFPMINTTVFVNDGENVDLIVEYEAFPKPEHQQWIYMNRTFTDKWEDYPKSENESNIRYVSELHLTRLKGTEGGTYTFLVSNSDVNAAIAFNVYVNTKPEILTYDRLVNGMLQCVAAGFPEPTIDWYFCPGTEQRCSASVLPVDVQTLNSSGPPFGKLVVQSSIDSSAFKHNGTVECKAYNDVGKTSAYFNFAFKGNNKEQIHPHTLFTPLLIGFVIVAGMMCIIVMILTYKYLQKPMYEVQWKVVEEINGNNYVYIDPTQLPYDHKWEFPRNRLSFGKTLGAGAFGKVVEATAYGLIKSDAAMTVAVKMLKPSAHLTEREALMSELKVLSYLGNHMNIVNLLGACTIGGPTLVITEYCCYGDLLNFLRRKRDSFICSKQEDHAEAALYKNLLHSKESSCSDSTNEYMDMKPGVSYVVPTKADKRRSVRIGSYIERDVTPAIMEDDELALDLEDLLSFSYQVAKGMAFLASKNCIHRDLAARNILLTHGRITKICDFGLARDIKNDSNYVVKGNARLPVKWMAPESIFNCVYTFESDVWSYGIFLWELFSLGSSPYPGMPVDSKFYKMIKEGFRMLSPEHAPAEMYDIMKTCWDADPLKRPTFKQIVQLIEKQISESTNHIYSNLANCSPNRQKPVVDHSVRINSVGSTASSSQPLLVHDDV

Sequence of Mitogen-activated protein kinase kinase kinase 10 (Q02779 whole entry): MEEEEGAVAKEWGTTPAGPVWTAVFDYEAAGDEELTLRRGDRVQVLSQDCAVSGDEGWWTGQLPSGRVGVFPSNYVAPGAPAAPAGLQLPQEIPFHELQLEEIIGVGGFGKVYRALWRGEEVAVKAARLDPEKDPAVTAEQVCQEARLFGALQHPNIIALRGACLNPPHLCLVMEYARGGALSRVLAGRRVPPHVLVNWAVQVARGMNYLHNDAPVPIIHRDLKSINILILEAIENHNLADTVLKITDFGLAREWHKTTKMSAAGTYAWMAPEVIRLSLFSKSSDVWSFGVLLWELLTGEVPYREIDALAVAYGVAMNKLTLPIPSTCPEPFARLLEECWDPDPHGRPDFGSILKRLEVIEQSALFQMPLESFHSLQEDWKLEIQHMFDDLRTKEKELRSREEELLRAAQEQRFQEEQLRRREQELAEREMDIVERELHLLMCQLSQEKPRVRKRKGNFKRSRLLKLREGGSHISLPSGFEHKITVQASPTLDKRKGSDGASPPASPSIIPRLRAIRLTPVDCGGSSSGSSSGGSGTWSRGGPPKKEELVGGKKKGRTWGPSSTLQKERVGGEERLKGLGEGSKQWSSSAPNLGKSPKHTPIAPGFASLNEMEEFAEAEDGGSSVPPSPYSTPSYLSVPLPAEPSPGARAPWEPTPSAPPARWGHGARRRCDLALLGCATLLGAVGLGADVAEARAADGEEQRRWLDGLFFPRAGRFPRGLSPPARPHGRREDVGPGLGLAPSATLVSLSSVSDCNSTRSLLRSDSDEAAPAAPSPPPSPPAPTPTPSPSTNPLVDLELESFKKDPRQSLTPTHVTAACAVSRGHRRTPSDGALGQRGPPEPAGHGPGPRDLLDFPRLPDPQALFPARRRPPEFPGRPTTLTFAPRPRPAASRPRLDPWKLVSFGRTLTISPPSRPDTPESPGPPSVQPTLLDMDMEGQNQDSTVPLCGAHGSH
Sequence of MAP/microtubule affinity-regulating kinase 3 (P27448 whole entry): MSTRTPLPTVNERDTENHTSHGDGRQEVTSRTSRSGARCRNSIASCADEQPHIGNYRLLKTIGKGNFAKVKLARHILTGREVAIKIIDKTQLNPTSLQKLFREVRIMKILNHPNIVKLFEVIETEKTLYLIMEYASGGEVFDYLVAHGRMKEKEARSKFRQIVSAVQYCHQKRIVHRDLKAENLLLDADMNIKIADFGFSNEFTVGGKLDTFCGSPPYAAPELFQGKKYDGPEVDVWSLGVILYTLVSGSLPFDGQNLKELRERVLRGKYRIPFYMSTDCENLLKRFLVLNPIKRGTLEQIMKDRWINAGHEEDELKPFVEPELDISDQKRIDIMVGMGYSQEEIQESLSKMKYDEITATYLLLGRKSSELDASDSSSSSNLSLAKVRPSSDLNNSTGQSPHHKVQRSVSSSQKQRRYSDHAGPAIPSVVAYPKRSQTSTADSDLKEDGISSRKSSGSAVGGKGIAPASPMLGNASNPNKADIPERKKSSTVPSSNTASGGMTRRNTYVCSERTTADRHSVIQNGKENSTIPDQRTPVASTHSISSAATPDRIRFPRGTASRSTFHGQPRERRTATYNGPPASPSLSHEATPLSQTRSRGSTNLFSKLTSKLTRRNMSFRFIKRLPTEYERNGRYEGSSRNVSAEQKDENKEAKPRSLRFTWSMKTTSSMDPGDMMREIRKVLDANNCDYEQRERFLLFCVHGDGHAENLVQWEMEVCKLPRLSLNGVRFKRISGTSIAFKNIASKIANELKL
Sequence of ORF 73 (O40947 whole entry, the tested form may be a part): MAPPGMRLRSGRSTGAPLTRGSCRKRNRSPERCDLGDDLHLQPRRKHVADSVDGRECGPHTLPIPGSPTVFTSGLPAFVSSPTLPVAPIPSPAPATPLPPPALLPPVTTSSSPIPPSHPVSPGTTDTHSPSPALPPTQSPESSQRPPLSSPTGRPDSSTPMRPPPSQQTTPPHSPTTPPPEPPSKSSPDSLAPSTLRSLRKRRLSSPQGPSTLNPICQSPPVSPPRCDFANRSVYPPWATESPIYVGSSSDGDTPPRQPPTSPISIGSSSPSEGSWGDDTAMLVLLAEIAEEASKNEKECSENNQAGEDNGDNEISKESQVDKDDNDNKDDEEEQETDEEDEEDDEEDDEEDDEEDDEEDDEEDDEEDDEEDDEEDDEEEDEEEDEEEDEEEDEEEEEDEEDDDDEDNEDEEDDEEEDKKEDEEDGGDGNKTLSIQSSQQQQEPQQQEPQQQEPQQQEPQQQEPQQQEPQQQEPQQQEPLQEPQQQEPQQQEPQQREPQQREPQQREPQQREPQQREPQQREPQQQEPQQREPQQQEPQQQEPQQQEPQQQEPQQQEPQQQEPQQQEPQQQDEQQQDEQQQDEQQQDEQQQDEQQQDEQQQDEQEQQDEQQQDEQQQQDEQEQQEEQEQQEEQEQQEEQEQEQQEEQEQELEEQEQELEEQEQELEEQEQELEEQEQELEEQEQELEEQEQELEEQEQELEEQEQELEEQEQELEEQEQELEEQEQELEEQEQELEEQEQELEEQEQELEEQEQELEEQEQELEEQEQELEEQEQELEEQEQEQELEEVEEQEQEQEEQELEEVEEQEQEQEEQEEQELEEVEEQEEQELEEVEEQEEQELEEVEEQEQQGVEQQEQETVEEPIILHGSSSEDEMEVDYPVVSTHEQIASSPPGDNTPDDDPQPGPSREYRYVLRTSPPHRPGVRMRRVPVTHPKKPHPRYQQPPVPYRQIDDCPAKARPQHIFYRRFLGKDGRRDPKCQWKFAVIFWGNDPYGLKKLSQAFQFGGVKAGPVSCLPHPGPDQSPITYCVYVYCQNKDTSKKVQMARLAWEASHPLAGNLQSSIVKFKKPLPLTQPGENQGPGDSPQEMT
Sequence of Tyrosine-protein kinase HCK (P08631 whole entry): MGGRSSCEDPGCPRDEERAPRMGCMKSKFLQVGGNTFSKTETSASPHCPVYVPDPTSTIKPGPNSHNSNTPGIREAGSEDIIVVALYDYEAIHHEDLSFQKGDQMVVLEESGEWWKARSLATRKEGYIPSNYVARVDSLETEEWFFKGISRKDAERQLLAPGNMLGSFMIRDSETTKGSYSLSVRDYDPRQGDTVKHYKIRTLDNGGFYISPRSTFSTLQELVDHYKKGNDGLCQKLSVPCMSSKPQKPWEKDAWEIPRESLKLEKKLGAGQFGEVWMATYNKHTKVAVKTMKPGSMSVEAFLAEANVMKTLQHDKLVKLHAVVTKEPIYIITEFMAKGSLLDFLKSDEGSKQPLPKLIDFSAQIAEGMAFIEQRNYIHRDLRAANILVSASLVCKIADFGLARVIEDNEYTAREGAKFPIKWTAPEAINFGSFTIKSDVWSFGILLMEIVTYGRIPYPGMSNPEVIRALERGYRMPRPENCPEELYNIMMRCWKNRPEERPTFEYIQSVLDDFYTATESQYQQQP
Sequence of Large T antigen (P03070 whole entry): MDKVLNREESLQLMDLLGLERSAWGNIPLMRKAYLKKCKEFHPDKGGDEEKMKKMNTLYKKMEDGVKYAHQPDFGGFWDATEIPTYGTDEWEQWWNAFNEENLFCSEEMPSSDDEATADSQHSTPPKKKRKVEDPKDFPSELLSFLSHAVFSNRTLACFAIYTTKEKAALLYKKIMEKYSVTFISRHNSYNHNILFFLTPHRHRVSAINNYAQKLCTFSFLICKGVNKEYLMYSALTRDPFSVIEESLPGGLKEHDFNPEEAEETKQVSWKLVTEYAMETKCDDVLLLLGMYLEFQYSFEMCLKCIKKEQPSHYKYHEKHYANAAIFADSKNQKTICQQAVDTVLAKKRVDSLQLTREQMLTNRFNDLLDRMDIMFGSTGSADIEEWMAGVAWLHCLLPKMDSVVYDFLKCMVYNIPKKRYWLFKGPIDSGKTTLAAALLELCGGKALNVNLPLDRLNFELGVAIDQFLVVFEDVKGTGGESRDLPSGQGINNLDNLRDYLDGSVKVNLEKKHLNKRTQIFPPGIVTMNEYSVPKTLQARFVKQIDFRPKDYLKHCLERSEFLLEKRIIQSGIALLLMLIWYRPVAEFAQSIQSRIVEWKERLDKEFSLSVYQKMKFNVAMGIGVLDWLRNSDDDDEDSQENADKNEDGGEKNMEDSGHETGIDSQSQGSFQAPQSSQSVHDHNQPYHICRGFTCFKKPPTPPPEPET

For c1ccc2nc3cc4[nH]cnc4cc3nc2c1, the AC50 (ORF 73) was 7.45 µM (active), the IC50 [1] was > 100 µM (inactive) and the EC50 [2] was 7.59 µM (inconclusive). The IC50 [3] was 10.8 µM (active), the EC50 [4] was 15.5 µM (active) and the EC50 (Protein RecA) was 29.6 µM (inconclusive).

With CCCCC(=O)Nc1cc(-c2c[nH]c3ncccc23)cc(Cl)n1 the Ki [5] was > 3.98 µM (inactive), the Ki (Misshapen-like kinase 1) was > 2.51 µM (inactive) and the Ki [6] was > 3.16 µM (inactive). The Ki [7] was > 3.16 µM (inactive), the Ki [8] was 0.000501 µM (active) and the Ki [9] was > 3.16 µM (inactive).

Oc1ccc(-c2nc(-c3ccncc3)c(-c3ccc(F)cc3)[nH]2)cc1 [SB-202190] was tested, and the IC50 (Large T antigen) was 4.87 µM (active), the Ki [10] was > 3.16 µM (inactive) and the Ki [11] was 2.51 µM (active). For the same compound, the Ki [12] was 1 µM (active), the Ki [13] was > 5.01 µM (inactive) and the Ki [14] was > 3.16 µM (inactive). For the same compound, the Ki [15] was > 6.31 µM (inactive).
